Measured values taken from US11459334B2, “Substituted pyrrolo[2,1-f][1,2,4]triazines as KIT and/or PDGFR-α inhibitors” (SHENZHEN TARGETRX, INC., priority 2018, dated 2022).

Columns and labels:
[1] = Metabolic stability evaluation, human liver microsome experiment; format: in vitro ADME; conditions: human liver microsomes, pH 7.4, 1 μM compound, 0.5 mg/mL protein; for microsomal CLint at 1 μM: read-out: CL human liver microsome experiment; for half-life at 1 μM: read-out: T½ human liver microsome experiment
Protocol: (§1) Microsome experiment: human liver microsome: 0.5 mg/mL, Xenotech; rat liver microsome: 0.5 mg/mL, Xenotech; coenzyme (NADPH/NADH): 1 mM, Sigma Life Science; magnesium chloride: 5 mM, 100 mM phosphate buffer (pH 7.4).
(§2) Preparation of stock solution: a certain amount of the example compound powder and control compound powder were accurately weighed, and respectively dissolved to 5 mM with DMSO.
(§3) Preparation of phosphate buffer (100 mM, pH7.4): 150 mL of 0.5M potassium dihydrogen phosphate and 700 mL of 0.5M dipotassium hydrogen phosphate prepared beforehand were mixed, with pH of the mixture adjusted to 7.4 with 0.5M dipotassium hydrogen phosphate solution. Before use, the mixture was diluted by 5 folds with ultrapure water and magnesium chloride was added to obtain the phosphate buffer (100 mM), which contains 100 mM potassium phosphate, 3.3 mM magnesium chloride, and has pH 7.4.
(§4) NADPH regeneration system solution (containing 6.5 mM NADP, 16.5 mM G-6-P, 3 U/mL G-6-P D, 3.3 mM magnesium chloride) was prepared, and placed on wet ice before use.
(§5) Preparation of stop solution: a solution of 50 ng/mL propranolol hydrochloride and 200 ng/mL tolbutamide (internal standard) in acetonitrile. 25057.5 μL of phosphate buffer (pH 7.4) was taken into a 50 mL centrifuge tube, added with 812.5 μL of human liver microsome, and mixed well to obtain a liver microsome diluent with a protein concentration of 0.625 mg/mL. 25057.5 μL of phosphate buffer (pH 7.4) was taken into a 50 mL centrifuge tube, added with 812.5 μL of SD rat liver microsome, and mixed well to obtain a liver microsome diluent with a protein concentration of 0.625 mg/mL.
(§6) Incubation of the samples: the stock solutions of the corresponding compounds were respectively diluted to 0.25 mM with an aqueous solution containing 70% acetonitrile to obtain working solutions for later use. 398 μL of human liver microsome and rat liver microsome diluents were respectively taken and added to a 96-well incubation plate (N=2), added with 2 μL of 0.25 mM working solution respectively, and mixed well.
(§7) Determination of metabolic stability: 300 μL of pre-cooled stop solution was added to each well of a 96-well deep-well plate, and the plate was placed on ice as a stop plate. The 96-well incubation plate and the NADPH regeneration system were placed in a 37° C. water bath, shaken at 100 rpm, and pre-incubated for 5 minutes. 80 μL of incubation solution was taken out of each well of the incubation plate and added to the stop plate, mixed well, and supplemented with 20 μL of NADPH regeneration system solution to obtain the 0 min sample. Then 80 μL of NADPH regeneration system solution was added to each well of the incubation plate to initiate the reaction and start timing. The reaction concentration of the corresponding compound was 1 μM, and the protein concentration was 0.5 mg/mL. At 10, 30, and 90 minutes of reaction, 100 μL of the reaction solution was taken and added to the stop plate, and vortexed for 3 minutes to stop the reaction. The stop plate was centrifuged at 5000×g for 10 min at 4° C. 100 μL of supernatant was taken to a 96-well plate pre-added with 100 μL of distilled water, mixed well, and subjected to sample analysis by LC-MS/MS.
(§8) Data analysis: the peak areas of the corresponding compound and internal standard were detected through the LC-MS/MS system, and the ratio of the peak area of the compound to the internal standard was calculated.

Ba/F3 Kit D816V = Ba/F3 Kit D816V (Homo sapiens, UniProt P10721, D816V, cells depend on it); conditions: read-out: Cell IC50 (nM) BaF3/Kit(D816V); 72 hours, CTG
[2] = Metabolic stability evaluation, rat liver microsome experiment; format: in vitro ADME; conditions: SD, rat liver microsomes, pH 7.4, 1 μM compound, 0.5 mg/mL protein; for microsomal CLint at 1 μM: read-out: CL rat liver microsome experiment; for half-life at 1 μM: read-out: T½ rat liver microsome experiment
Protocol: as §1, §2, §3, §4, §5, §6, §7, §8

microsomal CLint at 1 μM [1] [µL/min/mg] | half-life at 1 μM [1] [min] | GI50 (Ba/F3 Kit D816V) [nM] | microsomal CLint at 1 μM [2] [µL/min/mg] | half-life at 1 μM [2] [min] | Compound
15.8 | 87.6 | 1 to 50 | 24.6 | 56.3 | Cn1cc(-c2cc3c(N4CCN(c5ncc([C@@](C)(N)c6ccc(F)cc6)cn5)CC4)ncnn3c2)cn1 [Avapritinib, (S)-1-(4-fluorophenyl)-1-(2-(4-(6-(1-methyl-1H-pyrazol-4-yl)pyrrolo[2,1-f][1,2,4]triazin-4-yl)piperazin-1-yl)pyrimidin-5-yl)ethylamine, reference compound]
28.8 | 48.1 | – | 41.5 | 33.4 | Cn1cc(-c2cc3c(N4CCN(c5ncc([C@](C)(N)c6ccc(F)cc6)cn5)CC4)ncnn3c2)cn1 [Compound A, (R)-1-(4-fluorophenyl)-1-(2-(4-(6-(1-methyl-1H-pyrazol-4-yl)pyrrolo[2,1-f][1,2,4]triazin-4-yl)piperazin-1-yl)pyrimidin-5-yl)ethan-1-amine, reference compound]
15.6 | 88.6 | 1 to 50 | – | – | [2H]C([2H])([2H])n1cc(-c2cc3c(N4CCN(c5ncc([C@@](C)(N)c6ccc(F)cc6)cn5)CC4)ncnn3c2)cn1 [Compound T-1-S, (S)-1-(4-fluorophenyl)-1-(2-(4-(6-(1-(methyl-d3)-1H-pyrazol-4-yl)pyrrolo[2,1-f][1,2,4]triazin-4-yl)piperazin-1-yl)pyrimidin-5-yl)ethylamine]
– | – | 1 to 50 | – | – | [2H]C([2H])([2H])[C@](N)(c1ccc(F)cc1)c1cnc(N2CCN(c3ncnn4cc(-c5cnn(C)c5)cc34)CC2)nc1 [Compound T-2-S, (S)-1-(4-fluorophenyl)-1-(2-(4-(6-(1-methyl-1H-pyrazol-4-yl)pyrrolo[2,1-f][1,2,4]triazin-4-yl)piperazin-1-yl)pyrimidin-5-yl)ethan-2,2,2-d3-1-amine]
27 | 51.3 | – | 37.2 | 37.3 | [2H]C([2H])([2H])n1cc(-c2cc3c(N4CCN(c5ncc([C@](N)(c6ccc(F)cc6)C([2H])([2H])[2H])cn5)CC4)ncnn3c2)cn1 [Compound T-3-R, (R)-1-(4-fluorophenyl)-1-(2-(4-(6-(1-(methyl-d3)-1H-pyrazol-4-yl)pyrrolo[2,1-f][1,2,4]triazin-4-yl)piperazin-1-yl)pyrimidin-5-yl)ethan-2,2,2-d3-1-amine]
13 | 107 | 1 to 50 | 15.6 | 89.1 | [2H]C([2H])([2H])n1cc(-c2cc3c(N4CCN(c5ncc([C@@](N)(c6ccc(F)cc6)C([2H])([2H])[2H])cn5)CC4)ncnn3c2)cn1 [Compound T-3-S, (S)-1-(4-fluorophenyl)-1-(2-(4-(6-(1-(methyl-d3)-1H-pyrazol-4-yl)pyrrolo[2,1-f][1,2,4]triazin-4-yl)piperazin-1-yl)pyrimidin-5-yl)ethan-2,2,2-d3-1-amine]
26 | 53.3 | – | 27 | 51.4 | [2H]C1([2H])N(c2ncc([C@](C)(N)c3ccc(F)cc3)cn2)C([2H])([2H])C([2H])([2H])N(c2ncnn3cc(-c4cnn(C)c4)cc23)C1([2H])[2H] [Compound T-4-R, (R)-1-(4-fluorophenyl)-1-(2-(4-(6-(1-methyl-1H-pyrazol-4-yl)pyrrolo[2,1-f][1,2,4]triazin-4-yl)piperazin-1-yl-2,2,3,3,5,5,6,6-d8)pyrimidin-5-yl)ethylamine]
15.3 | 90.5 | 1 to 50 | 17.1 | 81.1 | [2H]C1([2H])N(c2ncc([C@@](C)(N)c3ccc(F)cc3)cn2)C([2H])([2H])C([2H])([2H])N(c2ncnn3cc(-c4cnn(C)c4)cc23)C1([2H])[2H] [Compound T-4-S, (S)-1-(4-fluorophenyl)-1-(2-(4-(6-(1-methyl-1H-pyrazol-4-yl)pyrrolo[2,1-f][1,2,4]triazin-4-yl)piperazin-1-yl-2,2,3,3,5,5,6,6-d8)pyrimidin-5-yl)ethylamine]
– | – | 1 to 50 | – | – | [2H]C([2H])([2H])n1cc(-c2cc3c(N4C([2H])([2H])C([2H])([2H])N(c5ncc([C@@](C)(N)c6ccc(F)cc6)cn5)C([2H])([2H])C4([2H])[2H])ncnn3c2)cn1 [Compound T-5-S, (S)-1-(4-fluorophenyl)-1-(2-(4-(6-(1-(methyl-d3)-1H-pyrazol-4-yl)pyrrolo[2,1-f][1,2,4]triazin-4-yl)piperazin-1-yl-2,2,3,3,5,5,6,6-d8)pyrimidin-5-yl)ethylamine]
24.2 | 57.3 | – | 38.6 | 35.9 | [2H]C1([2H])N(c2ncc([C@](N)(c3ccc(F)cc3)C([2H])([2H])[2H])cn2)C([2H])([2H])C([2H])([2H])N(c2ncnn3cc(-c4cnn(C)c4)cc23)C1([2H])[2H] [Compound T-6-R, (R)-1-(4-fluorophenyl)-1-(2-(4-(6-(1-methyl-1H-pyrazol-4-yl)pyrrolo[2,1-f][1,2,4]triazin-4-yl)piperazin-1-yl-2,2,3,3,5,5,6,6-d8)pyrimidin-5-yl)ethan-2,2,2-d3-1-amine]
13.1 | 105 | 1 to 50 | 15.5 | 89.4 | [2H]C1([2H])N(c2ncc([C@@](N)(c3ccc(F)cc3)C([2H])([2H])[2H])cn2)C([2H])([2H])C([2H])([2H])N(c2ncnn3cc(-c4cnn(C)c4)cc23)C1([2H])[2H] [Compound T-6-S, (S)-1-(4-fluorophenyl)-1-(2-(4-(6-(1-methyl-1H-pyrazol-4-yl)pyrrolo[2,1-f][1,2,4]triazin-4-yl)piperazin-1-yl-2,2,3,3,5,5,6,6-d8)pyrimidin-5-yl)ethan-2,2,2-d3-1-amine]
– | – | 1 to 50 | – | – | [2H]C([2H])([2H])n1cc(-c2cc3c(N4C([2H])([2H])C([2H])([2H])N(c5ncc([C@@](N)(c6ccc(F)cc6)C([2H])([2H])[2H])cn5)C([2H])([2H])C4([2H])[2H])ncnn3c2)cn1 [Compound T-7-S, (S)-1-(4-fluorophenyl)-1-(2-(4-(6-(1-(methyl-d3)-1H-pyrazol-4-yl)pyrrolo[2,1-f][1,2,4]triazin-4-yl)piperazin-1-yl-2,2,3,3,5,5,6,6-d8)pyrimidin-5-yl)ethan-2,2,2-d3-1-amine]
